Data as given in ChEMBL document CHEMBL4507301 (2021).

Tests used:
[1] = molecular target: Serine/threonine-protein kinase SBK1 (Homo sapiens) (UniProt Q52WX2); conditions: Compound concentration 1000.0 nM
[2] = molecular target: Hepatocyte growth factor receptor (Homo sapiens) (UniProt P08581); conditions: Compound concentration 1000.0 nM
[3] = molecular target: T1, Alpha-2A adrenergic receptor (Homo sapiens) (UniProt P08913); assay: alpha2A Eurofins-Panlabs ligand profiling; conditions: Compound concentration 10.0 uM
T1 sequence (whole entry): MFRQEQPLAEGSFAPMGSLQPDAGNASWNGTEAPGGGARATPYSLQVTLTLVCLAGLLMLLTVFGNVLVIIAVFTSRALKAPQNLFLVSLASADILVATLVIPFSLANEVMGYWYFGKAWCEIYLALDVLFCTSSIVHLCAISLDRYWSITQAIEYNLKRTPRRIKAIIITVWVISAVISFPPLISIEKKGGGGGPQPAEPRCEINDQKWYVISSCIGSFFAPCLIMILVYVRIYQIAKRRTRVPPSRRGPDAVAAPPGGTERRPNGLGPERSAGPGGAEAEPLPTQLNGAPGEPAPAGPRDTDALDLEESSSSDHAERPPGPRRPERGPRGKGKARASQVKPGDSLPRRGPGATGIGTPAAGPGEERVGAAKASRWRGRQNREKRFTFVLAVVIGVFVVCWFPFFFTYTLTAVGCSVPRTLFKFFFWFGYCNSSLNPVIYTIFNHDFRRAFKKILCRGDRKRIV

[4] = molecular target: 5-hydroxytryptamine receptor 7 (Homo sapiens) (UniProt P34969); conditions: Compound concentration 10.0 uM
[5] = molecular target: Serine/threonine-protein kinase 16 (Homo sapiens) (UniProt O75716); conditions: Compound concentration 1000.0 nM
[6] = molecular target: Misshapen-like kinase 1 (Homo sapiens) (UniProt Q8N4C8); conditions: Compound concentration 1000.0 nM
[7] = molecular target: Serine/threonine-protein kinase N2 (Homo sapiens) (UniProt Q16513); conditions: Compound concentration 1000.0 nM
[8] = molecular target: Ephrin type-B receptor 4 (Homo sapiens) (UniProt P54760); conditions: Compound concentration 1000.0 nM
[9] = molecular target: Serine/threonine-protein kinase LATS2 (Homo sapiens) (UniProt Q9NRM7); conditions: Compound concentration 1000.0 nM
[10] = molecular target: Macrophage-stimulating protein receptor (Homo sapiens) (UniProt Q04912); conditions: Compound concentration 1000.0 nM
[11] = molecular target: Testis-specific serine/threonine-protein kinase 3 (Homo sapiens) (UniProt Q96PN8); conditions: Compound concentration 1000.0 nM
[12] = molecular target: Serine/threonine-protein kinase PAK 3 (Homo sapiens) (UniProt O75914); conditions: Compound concentration 1000.0 nM
[13] = molecular target: Insulin receptor-related protein (Homo sapiens) (UniProt P14616); conditions: Compound concentration 1000.0 nM
[14] = molecular target: Beta-3 adrenergic receptor (Homo sapiens) (UniProt P13945); assay: beta3 Eurofins-Panlabs ligand profiling; conditions: Compound concentration 10.0 uM
[15] = molecular target: TGF-beta receptor type-1 (Homo sapiens) (UniProt P36897); conditions: Compound concentration 1000.0 nM
[16] = molecular target: Casein kinase I isoform gamma-1 (Homo sapiens) (UniProt Q9HCP0); conditions: Compound concentration 1000.0 nM
[17] = molecular target: Inhibitor of nuclear factor kappa-B kinase subunit beta (Homo sapiens) (UniProt O14920); conditions: Compound concentration 1000.0 nM
[18] = molecular target: Activin receptor type-2B (Homo sapiens) (UniProt Q13705); conditions: Compound concentration 1000.0 nM
[19] = molecular target: Proto-oncogene tyrosine-protein kinase Src (Homo sapiens) (UniProt P12931); conditions: Compound concentration 1000.0 nM
[20] = molecular target: Ribosomal protein S6 kinase alpha-4 (Homo sapiens) (UniProt O75676); conditions: Compound concentration 1000.0 nM
[21] = molecular target: Phosphatidylinositol 4,5-bisphosphate 3-kinase catalytic subunit gamma isoform (Homo sapiens) (UniProt P48736); conditions: Compound concentration 1000.0 nM
[22] = molecular target: Epidermal growth factor receptor (Homo sapiens) (UniProt P00533); conditions: Compound concentration 1000.0 nM
[23] = molecular target: Cyclin-dependent kinase 19 (Homo sapiens) (UniProt Q9BWU1); conditions: Compound concentration 1000.0 nM
[24] = molecular target: Cyclin-dependent kinase-like 1 (Homo sapiens) (UniProt Q00532); conditions: Compound concentration 1000.0 nM
[25] = molecular target: Phosphatidylinositol 4-phosphate 3-kinase C2 domain-containing subunit beta (Homo sapiens) (UniProt O00750); conditions: Compound concentration 1000.0 nM
[26] = molecular target: Homeodomain-interacting protein kinase 2 (Homo sapiens) (UniProt Q9H2X6); conditions: Compound concentration 1000.0 nM
[27] = molecular target: RAC-alpha serine/threonine-protein kinase (Homo sapiens) (UniProt P31749); conditions: Compound concentration 1000.0 nM
[28] = tested on: ALK tyrosine kinase receptor (Homo sapiens), Q9UM73 [C1156Y]; conditions: Compound concentration 1000.0 nM
[29] = molecular target: MAP kinase-interacting serine/threonine-protein kinase 2 (Homo sapiens) (UniProt Q9HBH9); conditions: Compound concentration 1000.0 nM
[30] = molecular target: Tyrosine-protein kinase CSK (Homo sapiens) (UniProt P41240); conditions: Compound concentration 1000.0 nM
[31] = molecular target: Calcium-dependent protein kinase 1 (Plasmodium falciparum) (UniProt P62344); conditions: Compound concentration 1000.0 nM
[32] = molecular target: Alpha-1A adrenergic receptor (Homo sapiens, UniProt P35348)
[33] = molecular target: Muscarinic acetylcholine receptor M4 (Homo sapiens) (UniProt P08173); conditions: Compound concentration 10.0 uM

Sequence of RAC-alpha serine/threonine-protein kinase (Homo sapiens) (P31749 whole entry): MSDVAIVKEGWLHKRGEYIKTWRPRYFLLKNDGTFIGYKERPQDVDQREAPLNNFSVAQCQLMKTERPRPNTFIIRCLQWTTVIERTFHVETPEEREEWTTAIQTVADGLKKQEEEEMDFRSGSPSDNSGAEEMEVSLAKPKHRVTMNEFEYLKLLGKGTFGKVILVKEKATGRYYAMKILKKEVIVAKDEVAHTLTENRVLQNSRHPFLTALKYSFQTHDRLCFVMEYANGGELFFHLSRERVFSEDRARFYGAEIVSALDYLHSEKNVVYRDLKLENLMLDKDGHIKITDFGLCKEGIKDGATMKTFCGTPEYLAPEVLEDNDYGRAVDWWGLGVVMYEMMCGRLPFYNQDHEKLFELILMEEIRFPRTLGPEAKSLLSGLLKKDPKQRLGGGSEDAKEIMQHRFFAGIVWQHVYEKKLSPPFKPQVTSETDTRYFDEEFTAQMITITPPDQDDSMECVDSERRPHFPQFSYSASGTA
Sequence of Ephrin type-B receptor 4 (Homo sapiens) (P54760 whole entry): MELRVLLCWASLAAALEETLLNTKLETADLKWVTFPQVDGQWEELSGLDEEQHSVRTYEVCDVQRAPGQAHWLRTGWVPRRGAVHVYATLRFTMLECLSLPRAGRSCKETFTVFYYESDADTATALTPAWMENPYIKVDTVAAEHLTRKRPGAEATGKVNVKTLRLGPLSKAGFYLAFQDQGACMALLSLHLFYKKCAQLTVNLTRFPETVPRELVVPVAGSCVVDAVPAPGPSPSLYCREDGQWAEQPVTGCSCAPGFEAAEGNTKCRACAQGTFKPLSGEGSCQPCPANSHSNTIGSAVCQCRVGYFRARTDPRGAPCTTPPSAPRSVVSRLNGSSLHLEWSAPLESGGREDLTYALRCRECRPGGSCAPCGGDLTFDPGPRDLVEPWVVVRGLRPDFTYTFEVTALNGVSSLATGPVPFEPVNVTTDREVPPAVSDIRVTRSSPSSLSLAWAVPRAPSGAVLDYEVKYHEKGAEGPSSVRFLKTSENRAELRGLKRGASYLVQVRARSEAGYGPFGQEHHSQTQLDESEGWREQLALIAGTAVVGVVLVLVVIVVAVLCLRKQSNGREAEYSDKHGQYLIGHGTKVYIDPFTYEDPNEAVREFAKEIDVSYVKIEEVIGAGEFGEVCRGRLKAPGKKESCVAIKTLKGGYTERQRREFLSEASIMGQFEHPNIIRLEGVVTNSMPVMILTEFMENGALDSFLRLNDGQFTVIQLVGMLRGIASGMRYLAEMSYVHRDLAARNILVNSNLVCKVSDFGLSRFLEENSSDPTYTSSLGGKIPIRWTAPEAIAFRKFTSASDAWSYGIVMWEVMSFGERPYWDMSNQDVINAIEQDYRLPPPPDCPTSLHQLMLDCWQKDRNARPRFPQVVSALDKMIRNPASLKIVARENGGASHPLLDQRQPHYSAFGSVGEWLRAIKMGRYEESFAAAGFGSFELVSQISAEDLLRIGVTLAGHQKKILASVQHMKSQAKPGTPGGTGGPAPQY
Sequence of Phosphatidylinositol 4-phosphate 3-kinase C2 domain-containing subunit beta (Homo sapiens) (O00750 whole entry, the tested form may be a part): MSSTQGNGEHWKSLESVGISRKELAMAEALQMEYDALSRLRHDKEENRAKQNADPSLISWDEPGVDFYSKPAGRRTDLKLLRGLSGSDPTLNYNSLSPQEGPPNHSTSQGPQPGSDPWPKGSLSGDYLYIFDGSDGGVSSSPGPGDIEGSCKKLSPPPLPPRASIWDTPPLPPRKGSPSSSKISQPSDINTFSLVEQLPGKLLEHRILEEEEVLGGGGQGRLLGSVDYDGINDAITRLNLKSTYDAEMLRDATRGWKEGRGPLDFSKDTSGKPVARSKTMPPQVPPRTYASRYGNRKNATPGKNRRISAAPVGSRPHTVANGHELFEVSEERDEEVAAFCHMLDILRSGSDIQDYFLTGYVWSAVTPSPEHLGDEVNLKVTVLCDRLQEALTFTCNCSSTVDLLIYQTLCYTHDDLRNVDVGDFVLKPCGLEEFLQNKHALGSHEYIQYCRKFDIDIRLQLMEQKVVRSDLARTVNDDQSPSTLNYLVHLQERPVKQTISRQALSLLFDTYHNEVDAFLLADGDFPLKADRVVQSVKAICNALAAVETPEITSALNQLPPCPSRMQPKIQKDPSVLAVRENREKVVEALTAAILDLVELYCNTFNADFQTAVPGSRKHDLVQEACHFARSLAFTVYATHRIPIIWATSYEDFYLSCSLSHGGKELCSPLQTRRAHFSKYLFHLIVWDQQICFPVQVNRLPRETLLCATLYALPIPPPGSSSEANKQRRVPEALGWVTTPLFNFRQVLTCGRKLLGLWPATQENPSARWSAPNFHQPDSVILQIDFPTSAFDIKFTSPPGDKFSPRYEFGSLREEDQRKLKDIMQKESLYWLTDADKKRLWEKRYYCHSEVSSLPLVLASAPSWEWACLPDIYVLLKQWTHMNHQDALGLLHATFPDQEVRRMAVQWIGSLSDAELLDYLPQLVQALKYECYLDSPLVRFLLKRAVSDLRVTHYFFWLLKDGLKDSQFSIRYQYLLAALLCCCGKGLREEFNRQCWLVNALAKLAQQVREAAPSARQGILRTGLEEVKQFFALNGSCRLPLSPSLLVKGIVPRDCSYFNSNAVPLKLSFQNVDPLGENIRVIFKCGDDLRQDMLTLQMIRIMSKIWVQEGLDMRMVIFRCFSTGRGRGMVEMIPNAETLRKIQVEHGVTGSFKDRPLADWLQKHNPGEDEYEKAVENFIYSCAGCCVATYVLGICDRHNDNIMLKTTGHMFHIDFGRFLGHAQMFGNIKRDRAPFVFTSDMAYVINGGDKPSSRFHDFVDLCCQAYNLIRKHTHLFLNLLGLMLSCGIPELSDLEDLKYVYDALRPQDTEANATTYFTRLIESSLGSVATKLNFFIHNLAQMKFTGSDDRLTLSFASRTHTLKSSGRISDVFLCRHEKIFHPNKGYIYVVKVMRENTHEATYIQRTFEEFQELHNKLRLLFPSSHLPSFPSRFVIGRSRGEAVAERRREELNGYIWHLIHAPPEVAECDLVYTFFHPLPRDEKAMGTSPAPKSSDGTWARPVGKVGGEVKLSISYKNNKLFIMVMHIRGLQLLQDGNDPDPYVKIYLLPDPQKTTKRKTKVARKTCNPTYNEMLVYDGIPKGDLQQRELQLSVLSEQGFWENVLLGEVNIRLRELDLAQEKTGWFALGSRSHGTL
Sequence of 5-hydroxytryptamine receptor 7 (Homo sapiens) (P34969 whole entry): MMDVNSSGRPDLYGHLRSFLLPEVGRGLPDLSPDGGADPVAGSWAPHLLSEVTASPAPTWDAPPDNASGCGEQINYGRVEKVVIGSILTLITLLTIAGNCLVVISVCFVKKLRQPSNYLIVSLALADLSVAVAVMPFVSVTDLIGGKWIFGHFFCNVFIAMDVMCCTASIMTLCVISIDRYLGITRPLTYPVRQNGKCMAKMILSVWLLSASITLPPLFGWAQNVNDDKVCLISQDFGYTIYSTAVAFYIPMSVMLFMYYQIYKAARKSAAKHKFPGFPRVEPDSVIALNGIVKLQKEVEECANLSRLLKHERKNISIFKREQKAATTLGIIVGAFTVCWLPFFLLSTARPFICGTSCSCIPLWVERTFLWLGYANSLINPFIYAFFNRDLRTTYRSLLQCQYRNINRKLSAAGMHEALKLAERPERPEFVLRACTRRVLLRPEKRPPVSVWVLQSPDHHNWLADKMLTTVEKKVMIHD
Sequence of TGF-beta receptor type-1 (Homo sapiens) (P36897 whole entry, canonical isoform): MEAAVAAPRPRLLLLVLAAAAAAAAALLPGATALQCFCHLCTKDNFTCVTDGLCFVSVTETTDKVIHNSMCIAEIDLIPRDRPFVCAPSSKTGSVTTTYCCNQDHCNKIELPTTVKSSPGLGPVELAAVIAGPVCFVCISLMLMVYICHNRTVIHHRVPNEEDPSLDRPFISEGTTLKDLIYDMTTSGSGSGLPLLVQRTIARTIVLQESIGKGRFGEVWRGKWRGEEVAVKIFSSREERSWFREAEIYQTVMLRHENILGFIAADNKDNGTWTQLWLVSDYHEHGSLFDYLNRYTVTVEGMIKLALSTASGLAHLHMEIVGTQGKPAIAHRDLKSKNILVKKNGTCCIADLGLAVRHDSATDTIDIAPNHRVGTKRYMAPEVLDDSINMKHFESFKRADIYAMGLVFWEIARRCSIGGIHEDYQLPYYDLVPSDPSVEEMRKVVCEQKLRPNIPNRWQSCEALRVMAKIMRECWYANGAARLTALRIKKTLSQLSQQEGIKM
Sequence of Serine/threonine-protein kinase SBK1 (Homo sapiens) (Q52WX2 whole entry): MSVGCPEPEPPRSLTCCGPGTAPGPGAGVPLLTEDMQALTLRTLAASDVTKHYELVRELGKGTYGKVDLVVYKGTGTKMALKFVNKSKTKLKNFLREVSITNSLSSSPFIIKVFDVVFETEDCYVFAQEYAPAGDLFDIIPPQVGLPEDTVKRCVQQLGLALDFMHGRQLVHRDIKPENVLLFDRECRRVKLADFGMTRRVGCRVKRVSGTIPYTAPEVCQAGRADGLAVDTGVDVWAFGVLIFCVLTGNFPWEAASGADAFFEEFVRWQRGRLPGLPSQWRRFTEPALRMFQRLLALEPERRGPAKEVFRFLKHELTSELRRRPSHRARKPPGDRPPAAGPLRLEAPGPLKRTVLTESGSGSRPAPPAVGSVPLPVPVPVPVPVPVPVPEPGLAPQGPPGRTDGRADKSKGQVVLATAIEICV
Sequence of Tyrosine-protein kinase CSK (Homo sapiens) (P41240 2-450 limits assumed): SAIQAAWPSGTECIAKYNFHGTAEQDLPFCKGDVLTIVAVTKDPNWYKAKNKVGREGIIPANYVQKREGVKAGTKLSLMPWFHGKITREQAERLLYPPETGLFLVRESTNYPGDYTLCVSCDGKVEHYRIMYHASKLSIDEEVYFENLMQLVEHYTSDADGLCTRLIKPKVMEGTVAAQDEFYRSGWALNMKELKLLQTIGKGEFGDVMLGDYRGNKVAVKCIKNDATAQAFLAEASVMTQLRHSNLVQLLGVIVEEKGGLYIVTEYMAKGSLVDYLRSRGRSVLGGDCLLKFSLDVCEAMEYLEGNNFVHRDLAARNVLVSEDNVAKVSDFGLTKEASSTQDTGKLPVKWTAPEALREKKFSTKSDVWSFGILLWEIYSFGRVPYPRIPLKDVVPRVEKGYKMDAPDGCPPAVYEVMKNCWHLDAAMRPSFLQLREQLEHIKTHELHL

SMILES	residual activity [1] [%]	residual activity [2] [%]	inhibition [4] [%]	residual activity [5] [%]	residual activity [6] [%]	residual activity [7] [%]	residual activity [8] [%]	residual activity [9] [%]	residual activity [10] [%]	residual activity [11] [%]	residual activity [12] [%]	residual activity [13] [%]	residual activity [15] [%]	residual activity [16] [%]	residual activity [17] [%]	residual activity [18] [%]	residual activity [19] [%]	residual activity [20] [%]	residual activity [21] [%]	residual activity [22] [%]	further results
C[C@H](c1cccc(C#N)c1)n1cc(Cl)cc(C(N)=O)c1=N [(R)-9s]	83	100	-7.43	100	88	100	89	84	100	100	88	100	100	96	100	100	88	69	98	100	inhibition [3]: 5%; inhibition [14]: -6%; residual activity [23]: 89%; residual activity [24]: 98%; residual activity [25]: 100%; residual activity [26]: 100%; residual activity [27]: 100%; residual activity [28]: 89%; residual activity [29]: 100%; residual activity [30]: 100%; residual activity [31]: 86%
C[C@@H](c1cccc(C#N)c1)n1cc(Cl)cc(C(N)=O)c1=N [(S)-9s]	99	93	4.17	85	96	100	96	80	100	100	94	100	81	82	100	100	99	80	100	100	Ki [32]: > 2700 nM (not active); residual activity [23]: 100%; residual activity [24]: 100%; residual activity [25]: 96%; residual activity [26]: 100%; residual activity [27]: 100%; residual activity [28]: 98%; residual activity [29]: 100%; residual activity [30]: 97%; inhibition [33]: -6.48%; residual activity [31]: 78%
